From US5776901A, “Polypeptide analogues having growth hormone releasing activity” (Administrators of the Tulane Educational Fund, priority 1992, dated 1998)
Several values for one entry are separate records, joined by “and”; a condition that tells them apart may be missing. Equal values may be shown once.

What was measured:
[1] = tested on: serum growth hormone (GH); test: In vivo GH release in pentobarbital anesthetized rats, i.v. injection; set-up: species or system rat; details: sacrificed 10 min after injection, N = 6
Protocol: (§1) Immature female Sprague-Dawley rats were obtained from the Charles River Laboratories (Wilmington, Mass.). After arrival they were housed at 25° C. with a 14:10 hour light:dark cycle. Water and Purina rat chow were available ad libitum. Pups were kept with their mothers until 21 days of age.
(§2) Twenty-six day old rats, six rats per treatment group, were anesthetized interperitoneally with 50 mg/kg of pentobarbital 20 minutes prior to i.v. treatment with peptide. Normal saline with 0.1% gelatin was the vehicle for intravenous (i.v.) injections of the peptides. The anesthetized rats, weighing 55-65 grams, were injected i.v. with the quantity of growth hormone releasing compounds indicated in Table 3. Injection was made as a 0.1 mL solution into the jugular vein.
(§3) All animals were sacrificed by guillotine 10 minutes after the final test injection (see Table 3). Trunk blood for the determination of blood GH levels was collected following decapitation. After allowing the blood to clot, it was centrifuged and the serum was separated from the clot. Serum was kept frozen until the day of sampling for radioimmunoassay (RIA) determination of growth hormone levels according to the following procedure, as developed by the National Institute of Arthritis, Diabetes and Digestive and Kidney Diseases (NIADDK).
Reagents are generally added to the RIA analysis tubes at a single sitting, at refrigerator temperature (about 4° C.) in the following sequence:
(b) "cold" (i.e., non-radioactive) standard or unknown serum sample to be analyzed,
(c) radio-iodinated growth hormone antigen, and
(d) growth hormone antiserum.
Reagent addition is generally carried out so that there is achieved a final RIA tube dilution of about 1:30,000 (antiserum to total liquid volume; vol:vol).
(§4) The mixed reagents are then typically incubated at room temperature (about 25° C.) for about 24 hours prior to addition of a second antibody (e.g., goat or rabbit anti-monkey gamma globulin serum) which binds to and causes precipitation of the complexed growth hormone antiserum. Precipitated contents of the RIA tubes are then analyzed for the number of counts in a specified period of time in a gamma scintillation counter. A standard curve is prepared by plotting number of radioactive counts versus growth hormone (GH) level. GH levels of unknowns are then determined by reference to the standard curve.
(§5) Serum GH was measured by RIA with reagents provided by the National Hormone and Pituitary Program.
Serum levels in Table 3 are recorded in ng/mL in terms of the rat GH standard of 0.61 International Units/mg (IU/mg). Data is recorded as the mean +/- standard error of the mean (SEM). Statistical analysis was performed with Student's t-test. In Table 3 the results shown are the average of studies with six rats.
The procedure of Example 2 was repeated.

[2] = tested on: serum growth hormone (GH); test: In vivo GH release in rats, subcutaneous injection, sacrifice at +15 minutes; set-up: species or system rat; details: Table 7, sacrifice +15 minutes, N = 6
Protocol: as §1, §2, §3, §4, §5
The general procedure of Example 2 was followed except the peptides were injected subcutaneously rather than intravenously and the sacrifice time was +15 minutes rather than +10 minutes.

[3] = Table 5, total dose 0.30 μg i.v.
[4] = Table 5, total dose 3.00 μg i.v.
[5] = Table 6, total dose 0.30 μg i.v.
[6] = Table 6, total dose 1.00 μg i.v.
[7] = Table 5, total dose 0.10 μg i.v.
[8] = Table 5, total dose 1.00 μg i.v.

DAla-Tcc-Ala-Trp-DPhe-Lys-NH2
GH Released Serum GH [1, 3]: 149 ng/mL
GH Released Serum GH [1, 4]: 142 ng/mL

DAla-DμNal-Ala-Trp-LysNH2
GH Released Serum GH [1, 5]: 187 ng/mL
GH Released Serum GH [1, 6]: 257 ng/mL
GH Released Serum GH ([1]; Table 6, total dose 3.00 μg i.v.): 198 ng/mL
GH Released Serum GH ([1]; Table 6, total dose 10.00 μg i.v.): 193 ng/mL
GH Released Serum GH ([1]; Table 6, total dose 30.00 μg i.v.): 236 ng/mL

α,γABU-DβNal-Ala-Trp-DPhe-LysNH2
GH Released Serum GH ([1]; Table 6, total dose 0.03 μg i.v.): 621 ng/mL
GH Released Serum GH ([1]; Table 6, total dose 0.10 μg i.v.): 1230 ng/mL
GH Released Serum GH [1, 5]: 2385 ng/mL
GH Released Serum GH [1, 6]: 3011 ng/mL

Tip-Ala-DβNal-Ala-Trp-DPhe-Lys-NH2
GH Released Serum GH [1, 7]: 168 ng/mL
GH Released Serum GH [1, 3]: 167 ng/mL
GH Released Serum GH [1, 8]: 152 ng/mL
GH Released Serum GH [1, 4]: 272 ng/mL

3Me-His-DβNal-Ala-Trp-DPhe-Lys-NH2
GH Released Serum GH ([1]; Table 5, total dose 0.03 μg i.v.): 122 ng/mL and 134 ng/mL
GH Released Serum GH [1, 7]: 185 ng/mL and 112 ng/mL and 159 ng/mL
GH Released Serum GH [1, 3]: 101 ng/mL and 78 ng/mL
GH Released Serum GH [1, 8]: 134 ng/mL

αγABU-DβNal-Ala-Phe-DPhe-Lys-NH2
GH Released Serum GH + SEM ([2]; total dose 1.00 μg s.c.): 1441 ± 203 ng/mL
GH Released Serum GH + SEM ([2]; total dose .03 μg s.c.): 192 ± 29 ng/mL
GH Released Serum GH + SEM ([2]; total dose .10 μg s.c.): 288 ± 62 ng/mL
GH Released Serum GH + SEM ([2]; total dose .30 μg s.c.): 461 ± 90 ng/mL

γABU-DβNal-Ala-Phe-DPhe-Lys-NH2
GH Released Serum GH + SEM ([2]; total dose 1.00 μg s.c.): 1127 ± 110 ng/mL
GH Released Serum GH + SEM ([2]; total dose .03 μg s.c.): 197 ± 31 ng/mL
GH Released Serum GH + SEM ([2]; total dose .10 μg s.c.): 182 ± 20 ng/mL
GH Released Serum GH + SEM ([2]; total dose .30 μg s.c.): 524 ± 116 ng/mL
